Assay results as given in ChEMBL document CHEMBL1201862, “PubChem BioAssay data set” (2004).
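Exposure lasted 48 hours, with cells grown in 96-well plates and compounds tested at five concentrations. The concentration for 50% growth inhibition is given as GI50.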 Calls of active or inactive are those of the source. No stated cut-off is given here; in the data, active = GI50 up to about 1.1 µM and inactive = higher.

Assays:
Assay in all cases: NCI tumour cell line growth inhibition, 48 h
DLD-1 = test system: DLD-1
MOLT-4 = test system: MOLT-4
RXF 393 = test system: RXF 393
CCRF-CEM = test system: CCRF-CEM
HOP-92 = test system: HOP-92
RPMI-8226 = test system: RPMI-8226
SK-MEL-2 = test system: SK-MEL-2
M14 = test system: M14
OVCAR-5 = test system: OVCAR-5
NCI-H522 = test system: NCI-H522
SF-539 = test system: SF-539
U-251 = test system: U-251
DMS-114 = test system: DMS-114
OVCAR-4 = test system: OVCAR-4
KM12 = test system: KM12
HCC 2998 = test system: HCC 2998
HCT-116 = test system: HCT-116
A549 = test system: A549
LOX IMVI = test system: LOX IMVI
Malme-3M = test system: Malme-3M
ACHN = test system: ACHN
NCI-H226 = test system: NCI-H226
UACC-62 = test system: UACC-62
SK-MEL-5 = test system: SK-MEL-5
NCI-H23 = test system: NCI-H23
DMS-273 = test system: DMS-273
SNB-78 = test system: SNB-78
A498 = test system: A498
OVCAR-3 = test system: OVCAR-3
K562 = test system: K562
SNB-75 = test system: SNB-75
OVCAR-8 = test system: OVCAR-8
SF-268 = test system: SF-268
SN12C = test system: SN12C
786-0 = test system: 786-0
UO-31 = test system: UO-31
SK-MEL-28 = test system: SK-MEL-28
HOP-62 = test system: HOP-62
TK-10 = test system: TK-10
SNB-19 = test system: SNB-19
NCI-H460 = test system: NCI-H460
HCT-15 = test system: HCT-15
EKVX = test system: EKVX
SF-295 = test system: SF-295
HL-60 = test system: HL-60
M19-MEL = test system: M19-MEL
CAKI-1 = test system: CAKI-1
UACC-257 = test system: UACC-257
IGROV-1 = test system: IGROV-1
HT-29 = test system: HT-29
KM-20L2 = test system: KM-20L2
SK-OV-3 = test system: SK-OV-3
SW-620 = test system: SW-620
XF498 = test system: XF498
LXFL 529 = test system: LXFL 529
COLO 205 = test system: COLO 205
SR = test system: SR

Cc1ccc(S(=O)(=O)N/N=C\c2c3ccccc3[n+](C)c3ccccc23)cc1
GI50 (DLD-1): 38.1 µM (inactive) | GI50 (MOLT-4): 17.6 µM (inactive) | GI50 (RXF 393): 15.9 µM (inactive) | GI50 (CCRF-CEM): 15.3 µM (inactive) | GI50 (HOP-92): 17.1 µM (inactive) | GI50 (RPMI-8226): 29.8 µM (inactive) | GI50 (SK-MEL-2): 43.8 µM (inactive) | GI50 (M14): 26 µM (inactive) | GI50 (OVCAR-5): > 100 µM (inactive) | GI50 (NCI-H522): 25.8 µM (inactive) | GI50 (SF-539): 22.4 µM (inactive) | GI50 (U-251): 24 µM (inactive) | GI50 (DMS-114): 24.9 µM (inactive) | GI50 (OVCAR-4): 27.6 µM (inactive) | GI50 (KM12): 34.6 µM (inactive) | GI50 (HCC 2998): 92.7 µM (inactive) | GI50 (HCT-116): 30.5 µM (inactive) | GI50 (A549): 20.8 µM (inactive) | GI50 (LOX IMVI): 11.2 µM (inactive) | GI50 (Malme-3M): 32.4 µM (inactive) | GI50 (ACHN): 41.9 µM (inactive) | GI50 (NCI-H226): 25 µM (inactive) | GI50 (UACC-62): 19.8 µM (inactive) | GI50 (SK-MEL-5): 29.4 µM (inactive) | GI50 (NCI-H23): 21.1 µM (inactive) | GI50 (DMS-273): 22.1 µM (inactive) | GI50 (SNB-78): 61.7 µM (inactive) | GI50 (A498): 20.4 µM (inactive) | GI50 (OVCAR-3): 26.1 µM (inactive) | GI50 (K562): 15.6 µM (inactive) | GI50 (SNB-75): 20 µM (inactive) | GI50 (OVCAR-8): 38.5 µM (inactive) | GI50 (SF-268): 29.2 µM (inactive) | GI50 (SN12C): 48.6 µM (inactive) | GI50 (786-0): 28.1 µM (inactive) | GI50 (UO-31): 26.9 µM (inactive) | GI50 (SK-MEL-28): 31.5 µM (inactive) | GI50 (HOP-62): 34.1 µM (inactive) | GI50 (TK-10): 48.3 µM (inactive) | GI50 (SNB-19): 24.9 µM (inactive) | GI50 (NCI-H460): 19.8 µM (inactive) | GI50 (HCT-15): 25.8 µM | GI50 (EKVX): 54.6 µM (inactive) | GI50 (SF-295): 13.8 µM (inactive) | GI50 (HL-60): 22 µM (inactive) | GI50 (M19-MEL): 32.1 µM (inactive) | GI50 (CAKI-1): 17.7 µM (inactive) | GI50 (UACC-257): 30.8 µM (inactive) | GI50 (IGROV-1): 29.6 µM (inactive) | GI50 (HT-29): 19.4 µM (inactive) | GI50 (KM-20L2): 31.7 µM (inactive) | GI50 (SK-OV-3): > 100 µM (inactive) | GI50 (SW-620): 33.8 µM (inactive)

FC(F)(F)c1ccc2c(c1)N(CCCNCCN1CCOCC1)c1ccccc1S2
GI50 (DLD-1): 16.2 µM (inactive) | GI50 (MOLT-4): 4.74 µM (inactive) | GI50 (RXF 393): 2.62 µM (inactive) | GI50 (CCRF-CEM): 12.6 µM (inactive) | GI50 (HOP-92): 3.4 µM (inactive) | GI50 (RPMI-8226): 7.19 µM (inactive) | GI50 (SK-MEL-2): 3.66 µM (inactive) | GI50 (M14): 1.95 µM (inactive) | GI50 (OVCAR-5): 11.3 µM (inactive) | GI50 (NCI-H522): 14.9 µM (inactive) | GI50 (SF-539): 4.7 µM (inactive) | GI50 (U-251): 11.6 µM (inactive) | GI50 (KM12): 11.6 µM (inactive) | GI50 (HCC 2998): 2.23 µM (inactive) | GI50 (HCT-116): 3.17 µM (inactive) | GI50 (A549): 14.4 µM (inactive) | GI50 (LOX IMVI): 8.85 µM (inactive) | GI50 (Malme-3M): 2.44 µM (inactive) | GI50 (ACHN): 12.3 µM (inactive) | GI50 (XF498): 3.81 µM (inactive) | GI50 (UACC-62): 13.2 µM (inactive) | GI50 (SK-MEL-5): 3.8 µM (inactive) | GI50 (NCI-H23): 12.3 µM (inactive) | GI50 (DMS-273): 16.8 µM (inactive) | GI50 (SNB-78): 11.6 µM (inactive) | GI50 (A498): 17.9 µM (inactive) | GI50 (OVCAR-3): 11.4 µM (inactive) | GI50 (K562): 2.99 µM (inactive) | GI50 (SNB-75): 7.13 µM (inactive) | GI50 (OVCAR-8): 16.6 µM (inactive) | GI50 (SF-268): 15.9 µM (inactive) | GI50 (SN12C): 13.3 µM (inactive) | GI50 (UO-31): 3.83 µM (inactive) | GI50 (SK-MEL-28): 5.2 µM (inactive) | GI50 (HOP-62): 12.4 µM (inactive) | GI50 (LXFL 529): 12.7 µM (inactive) | GI50 (TK-10): 12.7 µM (inactive) | GI50 (SNB-19): 16.1 µM (inactive) | GI50 (NCI-H460): 11.2 µM (inactive) | GI50 (HCT-15): 6.52 µM | GI50 (COLO 205): 2.37 µM (inactive) | GI50 (EKVX): 15 µM (inactive) | GI50 (SF-295): 13.3 µM (inactive) | GI50 (HL-60): 6.07 µM (inactive) | GI50 (M19-MEL): 7.14 µM (inactive) | GI50 (UACC-257): 10.9 µM (inactive) | GI50 (IGROV-1): 15.8 µM (inactive) | GI50 (HT-29): 3.24 µM (inactive) | GI50 (KM-20L2): 4.69 µM (inactive) | GI50 (SK-OV-3): > 10 µM (inactive) | GI50 (SR): 6.32 µM (inactive) | GI50 (SW-620): 10.2 µM (inactive)
